# Reference: publication PMC7399337, “Biological Properties and Absolute Configuration of Flavanones From Calceolaria thyrsiflora Graham” (Frontiers in Pharmacology, 2020)
# Legend:
# bacterial growth = system: bacterial growth; parameters: method as in Bravo et al., 2005; settings: high concentrations (1,000 µg/ml); ref Bravo et al., 2005; cited from earlier work
# 5-hLOX [1] = target: T1, 5-hLOX (Homo sapiens, UniProt P09917); experiment: In vitro 5-hLOX enzyme assay (H2DCFDA fluorescence); format: biochemical; settings: for Type of inhibition: 5-hLOX
# T1 construct: purchased Cayman Chemicals Inc. (Ann Arbor, MI, USA)
# T1 sequence (P09917 1-674): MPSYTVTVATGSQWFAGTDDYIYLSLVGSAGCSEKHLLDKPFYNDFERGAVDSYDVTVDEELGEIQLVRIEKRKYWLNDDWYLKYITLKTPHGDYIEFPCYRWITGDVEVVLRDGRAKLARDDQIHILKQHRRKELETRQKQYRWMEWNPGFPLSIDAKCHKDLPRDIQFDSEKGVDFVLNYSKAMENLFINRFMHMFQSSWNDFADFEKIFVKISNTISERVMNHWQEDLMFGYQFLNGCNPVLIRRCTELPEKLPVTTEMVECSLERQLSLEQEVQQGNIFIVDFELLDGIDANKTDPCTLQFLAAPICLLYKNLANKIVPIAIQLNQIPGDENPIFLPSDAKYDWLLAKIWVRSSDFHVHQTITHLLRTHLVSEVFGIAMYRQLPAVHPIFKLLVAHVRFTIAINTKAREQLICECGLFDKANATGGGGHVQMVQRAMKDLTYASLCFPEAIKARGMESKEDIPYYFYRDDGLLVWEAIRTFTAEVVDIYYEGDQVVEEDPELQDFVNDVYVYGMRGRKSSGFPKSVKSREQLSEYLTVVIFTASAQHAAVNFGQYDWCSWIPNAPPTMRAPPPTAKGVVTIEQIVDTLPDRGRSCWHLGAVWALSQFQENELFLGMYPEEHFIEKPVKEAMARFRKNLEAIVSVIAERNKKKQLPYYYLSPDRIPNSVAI
# Experimental: The commercially available enzyme 5-hLOX from Cayman Chemicals Inc. (Ann Arbor, MI, USA), was diluted (1:500) in the assay buffer. This contained 4-(2-hydroxyethyl)-1-piperazineethane sulfonic acid (HEPES) 50 mM, ethylenediamine tetraacetic acid (EDTA) 2 mM, adenosine triphosphate (ATP) 10 μM, and CaCl2 10 μM at pH 7.5) admixed with 10 μM of H2DCFDA. The reaction mixture was incubated for 15 min in the assay plate. Later, 280 μL of buffer and 10 μM of inhibitors were added per well and incubated for 30 min at 37°C. Finally, the reaction was started by adding a suitable concentration of arachidonic acid (0.5 μM) and the fluorescence was read in a multimode detector Synergy™ HT Multi-Mode Microplate Reader (Biotek, Bad Friedrichshall, Germany) […] after incubation at room temperature for 1 h. The IC50 values were obtained for analysis of oxidation of H2DCFDA dye to the highly fluorescent 2’,7’-dichloro-fluorescein (DCF) using the non-linear curve-fitting program. […] All data were collected in duplicate and the assays were performed on different days to ensure reproducibility.
# S. aureus MRSA 622-4 = experiment: Antibacterial MIC, CLSI microdilution, human pathogens; format: cell-based; settings: 18 h; for MIC: Staphylococcus aureus, read-out: Minimum inhibitory concentration (MIC)
# Experimental: (§1) Briefly, stock solutions (5 mg/ml) of compounds in DMSO were diluted in Mueller-Hinton broth (MHB) to the different two-fold assay concentrations. […] The obtained solution was added to MHB and serially two-fold diluted in a 96-well microplate. A sample of 100 μL of inoculum 1.5 × 10^6 colony forming unit (CFU) ml^-1 in MHB was added and then incubated at 37°C for 18 h. The assay was repeated three times. Wells containing MHB, 100 μL of inoculum, and DMSO served as negative controls.
# E. coli 33.1 = experiment: as above; format: cell-based; settings: Escherichia coli; E. coli 33.1 (multi-resistant); 18 h; read-out: Minimum inhibitory concentration (MIC)
# Experimental: as §1
# S. aureus NTCC8325-4 = experiment: as above; format: cell-based; settings: for MIC: Staphylococcus aureus, NTCC83254, 18 h, read-out: Minimum inhibitory concentration (MIC)
# Experimental: as §1
# S. aureus MRSA 97-7 = experiment: as above; format: cell-based; settings: 18 h; for MIC: Staphylococcus aureus, read-out: Minimum inhibitory concentration (MIC)
# Experimental: as §1
# E. coli ATCC25922 = experiment: as above; format: cell-based; settings: Escherichia coli, 18 h, read-out: Minimum inhibitory concentration (MIC)
# Experimental: as §1
# B. cinerea = experiment: In vitro fungicidal activity, radial mycelial growth test on PDA; format: cell-based; settings: Botrytis cinerea, 72 h, read-out: Percentage of inhibition on in vitro mycelial growth of B. cinerea
# Experimental: (§2) A strain of Botrytis cinerea isolated from a naturally infected grape (Vitis vinifera) was used in all experiments. Isolated Phytophtora cinnamomi was provided by the Agricultural and Livestock Service of Valparaíso. Both strains were maintained on a potato dextrose agar (PDA) medium (DIFCO, Detroit, MI) at 4°C. The inoculum of both pathogens was grown on PDA and incubates in dark at 23°C for 5 days in the case of B. cinerea and 8 days for P. cinnamomi.
# (§3) The fungicidal activity of flavanones, extracts, the negative control (C-) composed of solvent (1% ethanol), and the positive control (C+, commercial fungicide Captan® and metalaxil® for B. cinerea and P. cinnamomi, respectively) were assessed using the radial growth test technique on PDA medium as described ([Taborga et al., 2015]). All test samples were dissolved in ethanol (1%) and water, to obtain final concentrations of 50, 150, and 250 mg/L in the PDA medium. A plug (4 mm) of PDA medium with five-day-old mycelium colonies of the pathogen was placed at the center of a Petri dish with PDA medium with or without studied test samples and were incubated at 23°C in dark for 72 h (B. cinerea) and 120 h (P. cinnamomi). After incubation, the diameters of colonies were measured and the inhibition percentage was calculated as the average of three replicas compared to C-.
# P. cinnamomi = experiment: as above; format: cell-based, Phytophtora cinnamomi; settings: 120 h
# Experimental: as §2, §3
# 5-hLOX [2] = target: T1, 5-hLOX; experiment: In vitro 5-hLOX enzyme assay (H2DCFDA fluorescence); format: biochemical; settings: kinetic assays, inhibitor 0–1 μM, substrate 0.2–5 μM
# [3] = system: MDA-MB-231 human breast adenocarcinoma cells; experiment: In vitro cytotoxic activity, CyQuant cell viability, 72 h; format: cell-based; settings: Homo sapiens, MDA-MB-231, 72 h, read-out: LC50 ± SD
# Experimental: (§4) The used cell lines include MDA-MB-231 human breast adenocarcinoma cells, B16-F10 mouse metastatic melanoma cells and MEF primary mouse embryonic fibroblast. Cells were maintained in a DMEM high glucose medium (Mediatech, Manassas, VA, USA) supplemented with 10% (MDA-MB-231 and B16-F10) or 15% (MEF) heat-inactivated fetal bovine serum (HyClone Laboratories, South Logan, USA), 100 IU ml^-1 penicillin and 100 μg ml^-1 streptomycin while maintained at 37°C in a 5% CO2 humidified atmosphere. Cell viability was measured using a CyQuant® Direct Cell Proliferation Assay Kit (Life Technologies, Grand Island, NY, USA) following the manufacturer’s instruction. Briefly, 5,000 cells per well were seeded onto a flat-bottom 96-well plate in 200 μL final volume. Six hours after seeding, the culture medium was replaced by the medium containing the tested compounds at 0.01 to 100 µM concentrations in DMSO (0.1% final concentration) during 72 h. Untreated cells (medium containing only 0.1% DMSO) were used as controls. At the end of the incubation, 100 μL of culture medium was removed from each well and replaced by detection reagent solution provided by the kit (which is a 1:5 mixture of the reagent CyQUANT®, direct nucleic acid stain and the reagent labeled as CyQUANT® direct background suppressor I). Cells were incubated for 1 h and fluorescence emission was measured at 535 nm with excitation at 480 nm in a microplate reader (Infinite 200 PRO, Tecan, Grödig, Austria). At least four independent experiments were performed for each concentration. The results from each experiment were transformed into percentage of controls and the LC50 values were graphically obtained from the dose-response curves. The LC50 value was obtained adjusting the dose-response curve to sigmoidal curves (variable slope) using the GraphPad Prisma 6.0 software ([GraphPad-Software, 2015]).
# [4] = as above; format: cell-based; settings: mouse
# Experimental: as §4
# [5] = system: B16-F10 mouse metastatic melanoma cells; experiment: as above; format: cell-based; settings: Mus musculus, B16-F10, 72 h, read-out: LC50 ± SD
# Experimental: Cell viability was measured using a CyQuant® Direct Cell Proliferation Assay Kit (Life Technologies, Grand Island, NY, USA) following the manufacturer’s instruction. Briefly, 5,000 cells per well were seeded onto a flat-bottom 96-well plate in 200 μL final volume. Six hours after seeding, the culture medium was replaced by the medium containing the tested compounds at 0.01 to 100 µM concentrations in DMSO (0.1% final concentration) during 72 h. Untreated cells (medium containing only 0.1% DMSO) were used as controls. At the end of the incubation, 100 μL of culture medium was removed from each well and replaced by detection reagent solution provided by the kit (which is a 1:5 mixture of the reagent CyQUANT®, direct nucleic acid stain and the reagent labeled as CyQUANT® direct background suppressor I). […] At least four independent experiments were performed for each concentration.
smiles,measurement,setting,value
"O=C1Nc2ccccc2OC1O (centres unmarked) [HBOA, 2-dydroxy-2H-1,4-benzoxazin-3(4H)-one]",inhibitory activity of bacterial growth,bacterial growth,inhibitory activity
"O=C1C(O)Oc2ccccc2N1O (centres unmarked) [DIBOA, 2,4-dihydroxy-2H-1,4-benzoxazin-3(4H)-one]",inhibitory activity of bacterial growth,bacterial growth,inhibitory activity
"CC(Cc1ccc(O)c(O)c1)C(C)Cc1ccc(O)c(O)c1 (centres unmarked) [NDGA, nordihydroguaiaretic acid, reference compound]",Type of inhibition,5-hLOX [1],competitive
same,% of inhibition (5-hLOX),5-hLOX [1]; Flavanones at 10 µM,93 ± 5.870%
"COc1cc(C2CC(=O)c3c(O)cc(O)cc3O2)ccc1O (centres unmarked) [Compound 4, 3’-methoxy-4’,5,7-trihydroxyflavanone]",MIC,S. aureus MRSA 622-4,> 100 µg/mL
same,MIC,E. coli 33.1,> 100 µg/mL
same,MIC,S. aureus NTCC8325-4,> 100 µg/mL
same,MIC,S. aureus MRSA 97-7,> 100 µg/mL
same,MIC,E. coli ATCC25922,> 100 µg/mL
same,inhibition at 10 µM,5-hLOX [1]; Flavanones at 10 µM,11.7 ± 2.45%
O=C1C2CC=CCC2C(=O)N1SC(Cl)(Cl)Cl (centres unmarked) [Captan],inhibition at 50 µg/mL,B. cinerea; 50 mg/L,94 ± 5.2%
same,inhibition at 150 µg/mL,B. cinerea; 150 mg/L,100 ± 0.1%
same,inhibition at 250 µg/mL,B. cinerea; 250 mg/L,100 ± 0.2%
"COCC(=O)N(c1c(C)cccc1C)C(C)C(=O)OC (centres unmarked) [Metalaxil, reference compound]",Percentage of inhibition on in vitro mycelial growth of P. cinnamomi,P. cinnamomi; 50 mg/L,100 ± 0.2%
same,Percentage of inhibition on in vitro mycelial growth of P. cinnamomi,P. cinnamomi; 150 mg/L,100 ± 0.1%
same,Percentage of inhibition on in vitro mycelial growth of P. cinnamomi,P. cinnamomi; 250 mg/L,100 ± 0.1%
"CN[C@H](CC(C)C)C(=O)N[C@H]1C(=O)N[C@@H](CC(N)=O)C(=O)N[C@H]2C(=O)N[C@H]3C(=O)N[C@H](C(=O)N[C@H](C(=O)O)c4cc(O)cc(O)c4-c4cc3ccc4O)[C@H](O)c3ccc(c(Cl)c3)Oc3cc2cc(c3O[C@@H]2O[C@H](CO)[C@@H](O)[C@H](O)[C@H]2O[C@H]2C[C@](C)(N)[C@H](O)[C@H](C)O2)Oc2ccc(cc2Cl)[C@H]1O [Vancomicin, reference compound]",Minimum inhibitory concentration (MIC),S. aureus MRSA 622-4,5 µg/mL
same,Minimum inhibitory concentration (MIC),S. aureus NTCC8325-4; 18 h,"3,5 µg/ml"
same,Minimum inhibitory concentration (MIC),S. aureus MRSA 97-7,25 µg/mL
"O=C1Nc2ccc(O)cc2OC1O (centres unmarked) [Compound 7-OH-HBOA, 2,7-dihydroxy-2H-1,4-benzoxazin-3(4H)-one]",inhibitory activity of bacterial growth,bacterial growth,inhibitory activity
"O=C1CC(c2ccc(O)c(O)c2)Oc2cc(O)cc(O)c21 (centres unmarked) [Compound 3, 5,7,3’,4’-Tetrahydroxyflavanone]",Ki,5-hLOX [2],70 nM
same,MIC,S. aureus MRSA 622-4,> 100 µg/mL
same,MIC,E. coli 33.1,> 100 µg/mL
same,MIC,S. aureus NTCC8325-4,> 100 µg/mL
same,MIC,S. aureus MRSA 97-7,> 100 µg/mL
same,MIC,E. coli ATCC25922,> 100 µg/mL
same,Type of inhibition,5-hLOX [1],competitive
same,inhibition at 10 µM,5-hLOX [1]; Flavanones at 10 µM,88 ± 0.678%
same,IC50,5-hLOX [1]; read-out: IC50 (5-hLOX),220 nM
"O=c1[nH]c2ccccc2o1 [BOA, 2-benzoxazolinone]",inhibitory activity of bacterial growth,bacterial growth,inhibitory activity
"CC(=O)O[C@H]1C(=O)[C@@]2(C)[C@H]([C@H](OC(=O)c3ccccc3)[C@]3(O)C[C@H](OC(=O)[C@H](O)[C@@H](NC(=O)c4ccccc4)c4ccccc4)C(C)=C1C3(C)C)[C@]1(OC(C)=O)CO[C@@H]1C[C@@H]2O [Taxol, reference compound]",CC50,[3],210 ± 480 nM
same,CC50 at 72 h,[4],400 ± 70 nM
same,CC50,[5],480 ± 80 nM
"COc1cc([C@@H]2c3cc4c(cc3[C@@H](O[C@@H]3O[C@@H]5CO[C@@H](C)O[C@H]5[C@H](O)[C@H]3O)[C@H]3COC(=O)[C@H]23)OCO4)cc(OC)c1O [Etoposide, reference compound]",CC50,[3],1330 ± 280 nM
same,CC50 at 72 h,[4],1030 ± 170 nM
same,CC50,[5],1740 ± 320 nM
"CC1(C)S[C@@H]2[C@H](NC(=O)[C@H](N)c3ccccc3)C(=O)N2[C@H]1C(=O)O [Ampicillin, reference compound]",MIC,E. coli 33.1,> 100 µg/mL
same,MIC,E. coli ATCC25922,60 µg/mL
